Measurements reported in EP4722203A1, “3,4-DIHYDROPHTHALAZIN-1(2H)-ONE DERIVATIVE, AND PREPARATION METHOD THEREFOR AND USE THEREOF” (Academy of Military Medical Sciences, priority 2023, dated 2024).

Columns and labels:
Format in all cases: cell-based
[1] = tested on: NCI-H929-Lenalidomide-R cells; assay: Antiproliferative activity against resistant cells, CCK-8 assay; conditions: Homo sapiens, 144 hours incubation
Experimental: (§1) In this example, lenalidomide-resistant human multiple myeloma cells, including NCI-H929 (NCI-H929-Lenalidomide-R) and RPMI-8226 (RPMI-8226-Lenalidomide-R), and pomalidomide-resistant human multiple myeloma cells, including NCI-H929 (NCI-H929-pomalidomide-R) and RPMI-8226 (RPMI-8226-pomalidomide-R), were selected as cell models to determine the inhibitory activity of compound I-8 of the present invention against the proliferation of the resistant cells.
(§2) • ① I-8 was dissolved in DMSO to prepare a 10 mM stock solution. Compounds used within three months should be stored at room temperature in a desiccator; others could be stored at -20°C for long-term storage. • ② The I-8 stock solution and the reference compounds lenalidomide and pomalidomide were all diluted with DMSO. Their initial concentrations were 10 µM. In the experiments of lenalidomide-resistant human multiple myeloma cells (NCI-H929 (NCI-H929-Lenalidomide-R) and RPMI-8226 (RPMI-8226-Lenalidomide-R) and pomalidomide-resistant human multiple myeloma cells (NCI-H929 (NCI-H929-pomalidomide-R) and RPMI-8226 (RPMI-8226-pomalidomide-R), 3-fold serial dilution with 11 concentration points was performed, with the lowest concentration of […]. The resulting solutions were shaken on a shaker for 5 minutes.
(§3) • ① The NCI-H929-Lenalidomide-R, RPMI-8226-Lenalidomide-R, NCI-H929-pomalidomide-R, and RPMI-8226-pomalidomide-R cells in logarithmic growth phase were inoculated in a 96-well plate, 20,000 to 30,000 cells per well, and the plate was pre-cultured for 24 hours in an incubator (at 37°C and 5% CO2). • ® The culture medium in the plate was replaced, and the compounds and the positive controls with corresponding concentrations were added to the plated at a volume of 50 µL. • ③ The plate was incubated for 144 hours in an incubator, then 15 µL of CCK-8 solution was added to each well, and the plate was incubated in the incubator for another 1-4 hours. • ④ The absorbance at 450 nm was measured using a microplate reader.
(§4) • ① Calculating % Inhibition: [formula] • ② Calculating IC50 value of compound and plotting dose-response curve: The IC50 value was calculated by fitting the % Inhibition and the logarithm of compound concentration to a nonlinear regression (dose response-variable slope) by using GraphPad 6.0. Y = Bottom + (Top−Bottom)/(1+10^(∧)((LogIC50−X)*HillSlope)) [formula] X: log of inhibitor concentration; Y: % Inhibition.
(§5) After calculating % Inhibition, a dose-response curve was plotted with the logarithm of the test compound concentration as the x-axis and the average cell viability as the y-axis, and the IC50 value was obtained by fitting.

[2] = tested on: NCI-H929-pomalidomide-R cells; assay: as above; conditions: Homo sapiens, 144 hours incubation
Experimental: as §1, §2, §3, §4, §5

[3] = tested on: RPMI-8226-Lenalidomide-R cells; assay: as above; conditions: Homo sapiens, 144 hours incubation
Experimental: as §1, §2, §3, §4, §5

[4] = tested on: RPMI-8226-pomalidomide-R cells; assay: as above; conditions: Homo sapiens, 144 hours incubation
Experimental: as §1, §2, §3, §4, §5

MV-4-11 cells = assay: Antiproliferative activity, CCK-8 assay; conditions: Homo sapiens, MV4-11; 144 hours incubation, CCK-8, absorbance at 450 nm
Experimental: (§6) The cell models used in this example were human hematologic tumor cells, including NCI-H929, RPMI-8226, MV-4-11, U937 and WSU-DLCL-2. Some of the compounds of the present invention were selected to determine their inhibitory activity against the proliferation of NCI-H929, RPMI-8226, MV-4-11, U937, and WSU-DLCL-2 cells.
(§7) • ① The selected compounds were dissolved in DMSO to prepare 10 mM stock solutions. Compounds used within three months should be stored at room temperature in a desiccator; others could be stored at -20°C for long-term storage. • ② The above stock solutions and the positive reference compound pomalidomide were diluted with DMSO. Their initial concentrations were 10 µM. In the experiments of NCI-H929 and RPMI-8226 cells, 3-fold serial dilution with 11 concentration points was performed, with the lowest concentration of 0.00047 µM. The resulting solutions were shaken on a shaker for 5 minutes.
(§8) • ① The NCI-H929, RPMI-8226, MV-4-11, U937, and WSU-DLCL-2 cells in logarithmic growth phase were inoculated in a 96-well plate, 20,000 to 30,000 cells per well, and the plate was pre-cultured for 24 hours in an incubator (at 37°C and 5% CO2). • ② The culture medium in the plate was replaced, and the compounds and the positive control with corresponding concentrations were added to the plated at a volume of 50 µl. • ③ The plate was incubated for 144 hours in an incubator, then 15 µl of CCK-8 solution was added to each well, and incubated in the incubator for another 1-4 hours. • ④ The absorbance at 450 nm was measured using a microplate reader.
as §4, with “6.0. •” for “6.0.”, “(Top - Bottom) / (1 + 10^((LogIC50 - X) * HillSlope)) •” for “(Top−Bottom)/(1+10^(∧)((LogIC50−X)*HillSlope)) [formula]”
as §5

NCI-H929 cells = assay: Antiproliferative activity, CCK-8 assay; conditions: Homo sapiens, 144 hours incubation, CCK-8, absorbance at 450 nm, read-out: IC50 (µM) H-929
Experimental: as §6, §7, §8
as §4, with “6.0. •” for “6.0.”, “(Top - Bottom) / (1 + 10^((LogIC50 - X) * HillSlope)) •” for “(Top−Bottom)/(1+10^(∧)((LogIC50−X)*HillSlope)) [formula]”
as §5

RPMI-8226 cells = assay: Antiproliferative activity, CCK-8 assay; conditions: Homo sapiens, 144 hours incubation, CCK-8, absorbance at 450 nm
Experimental: as §6, §7, §8
as §4, with “6.0. •” for “6.0.”, “(Top - Bottom) / (1 + 10^((LogIC50 - X) * HillSlope)) •” for “(Top−Bottom)/(1+10^(∧)((LogIC50−X)*HillSlope)) [formula]”
as §5

U937 cells = assay: Antiproliferative activity, CCK-8 assay; conditions: Homo sapiens, U-937; 144 hours incubation, CCK-8, absorbance at 450 nm
Experimental: as §6, §7, §8
as §4, with “6.0. •” for “6.0.”, “(Top - Bottom) / (1 + 10^((LogIC50 - X) * HillSlope)) •” for “(Top−Bottom)/(1+10^(∧)((LogIC50−X)*HillSlope)) [formula]”
as §5

WSU-DLCL-2 cells = assay: Antiproliferative activity, CCK-8 assay; conditions: Homo sapiens, WSUDLCL2; 144 hours incubation, CCK-8, absorbance at 450 nm
Experimental: as §6, §7, §8
as §4, with “6.0. •” for “6.0.”, “(Top - Bottom) / (1 + 10^((LogIC50 - X) * HillSlope)) •” for “(Top−Bottom)/(1+10^(∧)((LogIC50−X)*HillSlope)) [formula]”
as §5

SMILES	IC50 [1] [µM]	IC50 [2] [µM]	IC50 [3] [µM]	IC50 [4] [µM]	IC50 (MV-4-11 cells) [µM]	IC50 (NCI-H929 cells) [µM]	IC50 (RPMI-8226 cells) [µM]	IC50 (U937 cells) [µM]	IC50 (WSU-DLCL-2 cells) [µM]
Nc1cccc2c1CN(C1CCC(=O)NC1=O)C2=O (stereo not drawn) [Lenalidomide]	> 100	> 100	> 100	> 100	–	–	–	–	–
CN1Cc2c(cccc2[N+](=O)[O-])C(=O)N1C1CCC(=O)NC1=O (stereo not drawn) [I-9, 3-(3-methyl-5-nitro-1-oxo-3,4-dihydrophthalazin-2(1H)-yl)piperidin-2,6-dione]	–	–	–	–	0.39	> 10	0.457	> 10	0.23

More lines, in order of falling IC50 (MV-4-11 cells), values ahead:

IC50 [1] [µM]	IC50 [2] [µM]	IC50 [3] [µM]	IC50 [4] [µM]	IC50 (MV-4-11 cells) [µM]	IC50 (NCI-H929 cells) [µM]	IC50 (RPMI-8226 cells) [µM]	IC50 (U937 cells) [µM]	SMILES	IC50 (WSU-DLCL-2 cells) [µM]
–	–	–	–	0.294	2.54	2.97	4.13	CN1Cc2cc([N+](=O)[O-])ccc2C(=O)N1C1CCC(=O)NC1=O (stereo not drawn) [I-11, 3-(3-methyl-6-nitro-1-oxo-3,4-dihydrophthalazin-2(1H)-yl)piperidin-2,6-dione]	2.65
–	–	–	–	0.215	5.85	0.38	> 10	CN1Cc2cc(N)ccc2C(=O)N1C1CCC(=O)NC1=O (stereo not drawn) [I-10, 3-(6-amino-3-methyl-1-oxo-3,4-dihydrophthalazin-2(1H)-yl)piperidin-2,6-dione]	0.7
–	–	–	–	0.174	0.243	0.641	0.666	CN1Cc2c(NCc3ccc(CN4CCN(C(=O)OC(C)(C)C)CC4)cc3)cccc2C(=O)N1C1CCC(=O)NC1=O (stereo not drawn) [I-5, tert-butyl 4-(4-(((2-(2,6-dioxopiperidin-3-yl)-3-methyl-1-oxo-1,2,3,4-tetrahydrophthalazin-5-yl)amino)methyl)benzyl)piperazin-1-carboxylate]	0.108
